Source: US4177350A, “Imidazole ethyl oxyalkoxy derivatives and thio analogues thereof” (Siegfried Aktiengesellschaft, priority 1977, dated 1979)
Converted amounts (≈) assume the structure as drawn.

Key:
Aspergillus niger = assay: minimum inhibitory concentration, gradient plate method, Aspergillus niger; format: cell-based; parameters: key to partial resistancy, Fungi, Asp: partial resistancy observed; settings: for MIC: 72 h, gradient 0-100 μg/ml, 10% aqueous dimethyl formamide, evaluated three days after inoculation, read-out: Minimum Inhibitory Concentration, Fungi, Asp
From the text: (§1) Test evaluation was made three days after inoculation.

Streptococcus faecalis = assay: minimum inhibitory concentration, gradient plate method, Streptococcus faecalis; format: cell-based; parameters: key to partial resistancy, Bacteria, Str: partial resistancy observed; settings: for MIC: Enterococcus faecalis, 72 h, gradient 0-100 μg/ml, 10% aqueous dimethyl formamide, evaluated three days after inoculation, read-out: Minimum Inhibitory Concentration, Bacteria, Str
From the text: as §1

[1] = test system: Staphylococcus aureus haemolyticus; assay: minimum inhibitory concentration, gradient plate method, Staphylococcus aureus haemolyticus; format: cell-based; parameters: key to partial resistancy, Bacteria, St: partial resistancy observed; settings: for MIC: 72 h, gradient 0-100 μg/ml, 10% aqueous dimethyl formamide, evaluated three days after inoculation, read-out: Minimum Inhibitory Concentration, Bacteria, St
From the text: as §1

[2] = test system: Trichophyton mentagrophytes; assay: minimum inhibitory concentration, gradient plate method, Trichophyton mentagrophytes; format: cell-based; settings: 72 h, gradient 0-100 μg/ml, 10% aqueous dimethyl formamide, evaluated three days after inoculation, read-out: Minimum Inhibitory Concentration, Fungi, Tri
From the text: as §1

[3] = oral toxicity LD50 per os, mice; settings: mouse, in vivo
From the text: (§2) The results of these tests are summarized in the following Table I together with the oral toxicity values (LD50 per os; mice, values in mg per kg of body weight) determined in the conventional manner.

in vivo = settings: mouse, po
From the text: as §2

mice = settings: oral, value as reported by Thienpont et al, Arzneimittelforschung 1975, 25, 224; cited from earlier work

Structure (SMILES)	MIC (Aspergillus niger) [µg/mL]	partial resistancy, Bacteria, Str (Streptococcus faecalis)	MIC [1] [µg/mL]	MIC [2] [µg/mL]	LD50 [3] [mg/kg]	MIC (Streptococcus faecalis) [µg/mL]	LD50 (in vivo) [mg/kg]	Toxicity LD50 per os (mice) [mg/kg]	partial resistancy, Fungi, Asp (Aspergillus niger)	partial resistancy, Bacteria, St [1]
Clc1ccc(OCCCCOC(Cn2ccnc2)c2ccc(Cl)cc2Cl)cc1.O=[N+]([O-])O (stereo not drawn) [Example 35, 1-{β-[4-(p-chlorophenoxy)-butoxy]-2,4-dichlorophenethyl}-imidazole nitrate]	< 10	r	10	< 10	> 4000					
CSCOC(Cn1ccnc1)c1ccc(Cl)cc1Cl (stereo not drawn) [Example 10, 1-β-(methylthiomethoxy-2,4-dichlorophenethyl)-imidazole nitrate]	< 10		20	< 10		30	~950			
Clc1ccc(C(Cn2ccnc2)SCCCOc2ccccc2)c(Cl)c1 (stereo not drawn) [Example 32, 1-[β-(phenoxypropylthio)-2,4-dichlorophenethyl]-imidazole]	< 10	r	< 10	< 10			> 2000			
Clc1ccc(OCCOC(Cn2ccnc2)c2ccc(Cl)cc2Cl)cc1 (stereo not drawn) [Example 28, 1-[β-(p-chlorophenoxyethoxy)-2,4-dichlorophenethyl)]-imidazole nitrate]	< 10		< 10	< 10		10	> 3000			
Clc1ccc(COC(Cn2ccnc2)c2ccc(Cl)cc2Cl)cc1 (stereo not shown) [ECONAZOLE, reference compound]	< 10		< 10	< 10		< 10		462.7		
COc1ccc(OCOC(Cn2ccnc2)c2ccc(Cl)cc2Cl)cc1 (stereo not drawn) [Example 7, 1-β-(4-methoxyphenoxymethoxy-2,4-dichlorophenethyl)-imidazole nitrate]	< 10		10	< 10		30	2600			
Clc1ccc(OCCOCCOC(Cn2ccnc2)c2ccc(Cl)cc2Cl)cc1 (stereo not drawn) [Example 17, 1-{β-[2-(p-chlorophenoxyethoxy)-ethoxy-2,4-dichlorophenethyl]}-imidazole nitrate]	10		< 10	< 10		10	2500			
Clc1ccc(C(Cn2ccnc2)OCSc2ccc(Cl)c(Cl)c2)c(Cl)c1 (stereo not drawn) [Example 15, 1-β-(3,4-dichlorophenylthiomethoxy-2,4-dichlorophenethyl)-imidazole nitrate]			< 10	< 10		< 10	~7500		r	
Clc1ccc(SCCCCOC(Cn2ccnc2)c2ccc(Cl)cc2Cl)cc1 (stereo not drawn) [Example 36, 1-{β-[4-(p-chlorophenylthio)-butoxy]-2,4-dichlorophenethyl}-imidazolenitrate]	35 (≈ 76.8 µM)	r	< 10	< 10			> 3000			
Clc1ccc(SCCCSC(Cn2ccnc2)c2ccc(Cl)cc2Cl)cc1 (stereo not drawn) [Example 34, 1-{β-[3-(p-chlorophenylthiopropylthio)]-2,4-dichlorophenethyl}-imidazole nitrate]		r	10	< 10			> 3000		r	
Clc1ccc(OCOC(Cn2ccnc2)c2ccc(Cl)cc2Cl)c(Cl)c1 (stereo not drawn) [Example 5, 1-β-(2,4-dichlorophenoxymethoxy-2,4-dichlorophenethyl)-imidazole nitrate]	< 10		< 10	< 10		< 10	> 3000			
Clc1ccc(C(Cn2ccnc2)OCSC2CCCCC2)c(Cl)c1 (stereo not drawn) [Example 22, 1-[β-(cyclohexylthiomethoxy-2,4-dichlorophenethyl)]-imidazole nitrate]	< 10		< 10	< 10		< 10	> 3000			
Clc1ccc(OCOC(Cn2ccnc2)c2ccc(Cl)cc2Cl)cc1 (stereo not drawn) [Example 4, 1-β-(4-chlorophenoxymethoxy-2,4-dichlorophenethyl)-imidazole nitrate]	< 10		< 10	< 10		< 10	~2750			
Clc1ccc(OCCCOC(Cn2ccnc2)c2ccc(Cl)cc2Cl)cc1 (stereo not drawn) [Example 30, 1-{β-[3-(p-chlorophenoxy)-propoxy-2,4-dichlorophenethyl]}-imidazole nitrate]	< 10		< 10	< 10		< 10	> 4000			
Cc1cc(SCOC(Cn2ccnc2)c2ccc(Cl)cc2Cl)ccc1Br (stereo not drawn) [Example 16, 1-β-(4-bromo-3-methylphenylthiomethoxy-2,4-dichlorophenethyl)-imidazole nitrate]	< 10		< 10	< 10		10	> 3000			
Cc1ccc(SCOC(Cn2ccnc2)c2ccc(Cl)cc2Cl)cc1 (stereo not drawn) [Example 14, 1-β-(4-methylphenylthiomethoxy-2,4-dichlorophenethyl)-imidazole nitrate]	< 10		< 10	< 10		< 10	> 3000			
Clc1ccc(C(Cn2ccnc2)OCSc2ccc(Br)cc2)c(Cl)c1 (stereo not drawn) [Example 12, 1-β-(4-bromophenylthiomethoxy-2,4-dichlorophenethyl)-imidazole nitrate]	< 10		< 10	< 10		10	12500			
Clc1ccc(C(Cn2ccnc2)OCCOc2ccccc2)c(Cl)c1 (stereo not drawn) [Example 27, 1-β-(phenoxyethoxy-2,4-dichlorophenethyl)-imidazole nitrate]	< 10			< 10		30	~800			r
CSCOC(Cn1ccnc1)c1ccc(Cc2ccc(Cl)cc2)cc1 (stereo not drawn) [Example 19, 1-[β-methylthiomethoxy-4-(4'-chlorobenzyl)-phenethyl]-imidazole nitrate]	10		10	< 10		25	970			
Clc1ccc(OCCCSC(Cn2ccnc2)c2ccc(Cl)cc2Cl)cc1 (stereo not drawn) [Example 33, 1-{β-[3-(p-chlorophenoxy)-propylthio-2,4-dichlorophenethyl]}-imidazole]	25 (≈ 56.6 µM)		< 10	< 10		10 (≈ 22.6 µM)	> 1000			
Clc1ccc(C(Cn2ccnc2)OCSc2ccccc2)c(Cl)c1 (stereo not drawn) [Example 11, 1-β-(phenylthiomethoxy-2,4-dichlorophenethyl)-imidazole nitrate]	< 10		< 10	< 10		20	> 3000			
Clc1ccc(C(Cn2ccnc2)OCOc2ccccc2Cl)c(Cl)c1 (stereo not drawn) [Example 3, 1-β-(2-chlorophenoxymethoxy-2,4-dichlorophenethyl)-imidazole nitrate]	< 10		< 10	< 10		15	> 3000			
Clc1ccc(SCCCOC(Cn2ccnc2)c2ccc(Cl)cc2Cl)cc1.O=[N+]([O-])O (stereo not drawn) [Example 31, 1-{β-[3-(p-chlorophenylthio)-propoxy]-2,4-dichlorophenethyl}-imidazole nitrate]	< 10		< 10	< 10	4300	< 10				
